As a reminder, the pIC50 is −log10 of the IC50, conventionally taken in molar units. Read a low pIC50 as a high IC50.

This assay concerns the target T1, human DGAT1 (Homo sapiens, UniProt O75907).
T1 construct: FLAG (N); made in house; host or cells: SF9 insect cells (baculovirus, pFastBac); total cell membranes used as the enzyme source
T1 sequence (O75907 1-488): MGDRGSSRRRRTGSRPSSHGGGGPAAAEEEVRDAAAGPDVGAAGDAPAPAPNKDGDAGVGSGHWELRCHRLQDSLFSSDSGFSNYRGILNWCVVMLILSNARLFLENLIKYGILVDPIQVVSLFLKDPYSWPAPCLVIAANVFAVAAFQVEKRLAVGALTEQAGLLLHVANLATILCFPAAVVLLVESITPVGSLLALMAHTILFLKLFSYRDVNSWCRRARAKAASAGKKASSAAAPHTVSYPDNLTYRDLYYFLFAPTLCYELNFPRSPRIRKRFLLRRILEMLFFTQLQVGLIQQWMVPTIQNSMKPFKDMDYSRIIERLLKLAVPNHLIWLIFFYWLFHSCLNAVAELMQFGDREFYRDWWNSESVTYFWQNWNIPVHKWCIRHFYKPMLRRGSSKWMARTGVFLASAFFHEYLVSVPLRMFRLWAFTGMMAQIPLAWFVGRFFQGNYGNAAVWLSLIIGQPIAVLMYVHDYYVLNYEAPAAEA
Briefly: DGAT1 FlashPlate inhibition assay with DGAT1 membrane preparations. The class given is biochemical. Particulars: IC50 values expressed in M; pIC50 = -logIC50; inhibition of DGAT1 activity. The method in brief:
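Membranes from Sf9 cells expressing N-FLAG human DGAT1 were incubated 120 min at 37 °C with 50 μM DAG in PC/PS micelles and 8.4 μM [3H]-oleoylCoA in Tris pH 7.4, MgCl2, EDTA and 0.2% BSA. The reaction was stopped with N-ethylmaleimide, and triacylglycerol was read by FlashPlate radioluminescence and normalised to enzyme and no-enzyme controls.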

pIC50: −log10 of the molar value.

`Cc1nc(C(=O)Nc2ccc(C3CCN(C(=O)Nc4c(Cl)cccc4Cl)CC3)cc2)c(-c2cccc(C(F)(F)F)c2)s1` [Compound 53]: the pIC50 is 5.83.
Then `Cc1ccc(C)n1-c1ccc(C(=O)Nc2ccc(N3CCN(C(=O)Nc4c(Cl)cccc4Cl)CC3)cc2)cc1` [Compound 19], with 6.84; and `Cc1ccc2c(c1)C(=O)c1cc(C)cc(C(=O)Nc3ccc(C4CCN(C(=O)Nc5c(Cl)cccc5Cl)CC4)cc3)c1-2` [Compound 64], with 6.88; and `O=C(Nc1ccc(N2CCN(C(=O)c3c(Cl)cccc3Cl)CC2)cc1)c1ccccc1-c1ccc(C(F)(F)F)cc1` [Compound 6], with 5.04.
Then `CCOC(=O)c1ccc(NC(=O)N2CCN(c3ccc(NC(=O)c4ccccc4-c4ccc(C(F)(F)F)cc4)cc3)CC2)cc1` [Compound 72], with 5.11; and `CCc1nc(C)c(-c2ccccc2C(=O)Nc2ccc(C3CCN(C(=O)Nc4c(Cl)cccc4Cl)CC3)cc2)s1` [Compound 55], with 7.58; and `CCCNC(=O)N1CC=C(c2ccc(NC(=O)c3ccccc3-c3ccc(C(F)(F)F)cc3)cc2)CC1` [Compound 119], with 5.33.
Then `CC(C)(C)c1ccccc1NC(=O)N1CCN(c2ccc(NC(=O)c3ccccc3-c3ccc(C(F)(F)F)cc3)cc2)CC1` [Compound 78], with 5.12.
On to `O=C(Nc1ccc(N2CCN(C(=O)Nc3c(Cl)cccc3Cl)CC2)cc1)c1ccc(-c2nnn[nH]2)cc1` [Compound 33], for which the pIC50 was 5.71.
As to `Cc1ccccc1-c1cccc(C(=O)Nc2ccc(N3CCN(C(=O)Nc4c(Cl)cccc4Cl)CC3)cc2)c1` [Compound 36], the pIC50 was 8.76. Against the preceding molecule, the pIC50 is 3.05 log units higher.
Then `O=C(Nc1cccc(N2CCCC2)c1)c1ccc(N2CCN(C(=O)Nc3c(Cl)cc(CN4CCCC4)cc3Cl)CC2)cc1` [Compound 130], with 8.14.
The value for `O=C(Nc1ccc(N2CCN(C(=O)Nc3c(Cl)cccc3Cl)CC2)cc1)c1cccc(N2CCS(=O)(=O)CC2)c1` [Compound 43] was 6.36; that for `O=C(O)c1cccc(C(=O)Nc2ccc(N3CCN(C(=O)Cc4c(Cl)cc(CN5CCCC5)cc4Cl)CC3)cc2)c1` [Compound 146] was 5.47.
As for `O=C(Nc1ccc(N2CCN(C(=O)Nc3c(Cl)cccc3Cl)CC2)cc1)c1cccc(-c2cnco2)c1` [Compound 16], the pIC50 was 7.92.
The value for `O=C(Nc1ccc(C2CCN(C(=O)Nc3c(Cl)cccc3Cl)CC2)cc1)C1CSCN1` (stereo not shown) [Compound 48] was 5.45; that for `CN1CCN(c2ccc(C(=O)Nc3ccc(N4CCN(C(=O)Nc5c(Cl)cccc5Cl)CC4)cc3)cc2)CC1` [Compound 44] was 7.00.
The value for `O=C(Nc1ccc(N2CCN(C(=O)NCc3ccccc3)CC2)cc1)c1ccccc1-c1ccc(C(F)(F)F)cc1` [Compound 70] was 5.26; that for `Cc1cc(C)c(NC(=O)N2CCN(c3ccc(NC(=O)c4ccccc4-c4ccc(C(F)(F)F)cc4)cc3)CC2)c(C)c1` [Compound 85] was 6.75.
For `O=C(Nc1cccc(N2CCCC2)c1)c1ccc(N2CCN(C(=O)Cc3c(Cl)cccc3Cl)CC2)cc1` [Compound 131], the pIC50 is 7.51. This pIC50 is 0.76 log units higher than that of the molecule before.
The value for `COc1cccc(OC)c1NC(=O)N1CCN(c2ccc(NC(=O)c3ccccc3-c3ccc(C(F)(F)F)cc3)cc2)CC1` [Compound 84] was 5.28.
Then `O=C(Nc1ccc(N2CCN(C(=O)Nc3c(F)cc(Br)cc3F)CC2)cc1)c1ccccc1-c1ccc(C(F)(F)F)cc1` [Compound 98], with 5.58; and `CCc1ccccc1NC(=O)N1CCN(c2ccc(NC(=O)c3ccccc3-c3ccc(C(F)(F)F)cc3)cc2)CC1` [Compound 75], with 5.67; and `C=CCNC(=O)N1CCC(c2ccc(NC(=O)c3ccccc3-c3ccc(C(F)(F)F)cc3)cc2)CC1` [Compound 107], with 5.61.
In the case of `O=C(Nc1ccc(N2CCN(C(=O)Nc3c(Cl)cccc3Cl)CC2)cc1)c1ccccc1N1CCOCC1` [Compound 39], the pIC50 is 6.42. Against the preceding molecule, the pIC50 is 0.81 log units higher.
Then `CCCc1ccccc1NC(=O)N1CCN(c2ccc(NC(=O)c3ccccc3-c3ccc(C(F)(F)F)cc3)cc2)CC1` [Compound 76], with 5.12.

The values above are taken from US9227935B2, “Piperidine/piperazine derivatives” (Janssen Pharmaceutica N.V., priority 2007, dated 2016).
